According to patent US7572923B2, “Indirubin derivatives having anticancer property against human cancer cell line” (Anygen Co., Ltd., priority 2004, dated 2009):

Experiments:
[1] = system: human colon cancer cell line (Col2); assay: Inhibition of cancer cell line proliferation, Col2; format: cell-based; conditions: 96 h, 3˜4 days incubation, absorbance at 515 nm
Experimental: (§1) For measuring the proliferation inhibition by indirubin compound, the method disclosed in K. Likhitwitayawuid et al. Journal. Nat. Prod. […] Followings are simple description of this method. The cancer cell line is diluted into 5×10^4 cfu/ml. Then, various concentrations of test compounds are added to 96 well microtiter plate containing diluted cell line. After incubating test plate for 3˜4 days at 37° C., the test plate is dried and Tris-base is added. Then, using ELISA plate detector, the absorbance at 515 nm is measured. IC50 is measured by non-linear regression method.

RK3E-Ras cells [2] = assay: Cell viability by MTT assay; format: cell-based, rat; conditions: 1, 10, 20, 40 μM, 6, 12, 24, 48 hours
Experimental: To measure the influence to cell viability by indirubin derivative, RK3E-Ras cell, 1×10^5/well is seeding on 24 well plate. After incubation of cells for 12˜24 hours, indirubin derivative 011 in various concentration (1 μM, 10 μM, 20 μM, 40 μM) are treated for 6, 12, 24, 48 hours respectively. As control, cells without treating any compound are employed. […] FIG. 1 show the decline of cell viability after treatment of indirubin derivative 011.
According to the same condition in Example 3, other indirubin derivative 012, 030 are treated to measure the influence to cell viability.

RK3E-ras solid tumor [3] = assay: Histological appearance of tumor lesion, H&E stain; format: in vivo, Sprague Dawley rat; conditions: rat tumor tissue
Experimental: (§2) 1×10^7 of RK3E-ras cells is injected to Sprague Dawley rat to induce solid tumor for 5 days and experimental groups of animals are employed by size and volume of tumor in these animals. 100 mM of indirubin derivative is injected to experimental group of animals 5 times in every other day.
To observe histological appearance of tumor lesion after indirubin derivatives 011, 012 and 030 treatment, tumor tissue is immobilized in para-formaldehyde solution and is treated with paraffin. Then, H&E stain is carried out. […] From this experiment, indirubin derivatives of the present invention induce apoptosis of tumor, which results in the suppression of tumor formation in tissue level. FIG. 8 is photography showing the appearance of tumor lesion after treating indirubin derivatives 011, 012 and 030 of present invention.

[4] = system: leukemia cell line (HL-60); assay: Differentiation inducing effect, NBT reduction method; format: cell-based, human; conditions: 0.2 μM compound, 3 days
Experimental: For measuring the differentiation inducing effect to acute bone merrow leukemia cell line (HL-60) by indirubin AGM compound, NBT (nitroblue tetrazolium) reduction reaction method is employed. The leukemia cell line is diluted into 2×10^5 cfu/ml. […] Incubated cells are washed with phosphate buffered saline (PBS). Then, they are further incubated in PBS solution containing 0.1% NBT and 200 ng/ml of PMA (phorbol 12-myristate 13-acetate) for 30 minutes at 37° C. Incubated cells are centrifuged and collected cells are washed with PBS solution. Using cell number counter, differentiated cells forming nitroblue formazan among total cells are counted.

[5] = system: human leukemia cell line (HL-60); assay: Inhibition of cancer cell line proliferation, HL-60; format: cell-based; conditions: HL-60, 96 h, HL60, 3˜4 days incubation, absorbance at 515 nm
Experimental: as §1

[6] = system: human stomach cancer cell line (SNU-638); assay: Inhibition of cancer cell line proliferation, SNU-638; format: cell-based; conditions: 96 h, 3˜4 days incubation, absorbance at 515 nm
Experimental: as §1

RK3E-Ras cells [7] = assay: DNA fragmentation, agarose gel electrophoresis; format: cell-based, rat; conditions: 10 μM
Experimental: We test if the decline of cell viability by indirubin derivative 011 relates to apoptosis of cell or not. Genomic DNA from cells treated with indirubin derivative 011 is isolated and fragmented. RK3E-Ras cell, 6×10^5/well is seeding on 6 well plate. After incubation of cells for 12˜24 hours, 10 μM of indirubin derivative 011 is treated with cells. As a control, cells without treating any compound or cells treating DMSO in same concentration are employed.

RK3E-ras solid tumor [8] = assay: Tumor suppression in RK3E-ras tumor induced rats; format: in vivo; conditions: Sprague Dawley rat
Experimental: RK3E cell is one of rat kidney cell and it is immortalized by EA1 oncogene. […] Inventors prepares stable RK3E-k-ras cell line by infection of retroviral expression vector to express mutant k-ras of oncogene. Prepared cell line is intramuscularly infected to Sprague Dawley rat to induce tumor. […] Tumor suppression effect by indirubin derivatives 011, 012 and 030 is measured through tumor induced rats.
as §2
Tumor is measured by vernier caliper and the volume of tumor is calculated by Carlsso calculation method {V=1/2(a.b^2), a: long axis, b: short axis}.

RK3E-Ras cells [9] = assay: Annexin-V-FLUOS/propidium iodide double staining assay for apoptosis; format: cell-based, rat; conditions: 1 μM, 24 hours
Experimental: Annexin-V-FLUOS/propidium iodide double staining assay is a sensitive method for measuring apoptosis in cell level by detecting exposed phosphatidyl serine in apoptotic cell membrane.
RK3E-Ras cell is seeding in 6×10^5 level on cover side. Indirubin derivatives 011, 012 and 030 are treated in 1 μM concentration for 24 hours. As a control, cells without treating any compound are employed. After 24 hours, cells are annexin-V-FLUOS/propidium iodide double stained using annexin-V-FLUOS staining kit. […] It is confirmed that apoptosis of cells treated with indirubin derivatives 011, 012 and 030 is processed.

[10] = system: human lung cancer cell line (A549); assay: Inhibition of cancer cell line proliferation, A549; format: cell-based; conditions: 96 h, 3˜4 days incubation, absorbance at 515 nm
Experimental: as §1

[11] = system: human abdominal cavity cancer cell line (HT 1080); assay: Inhibition of cancer cell line proliferation, HT 1080; format: cell-based; conditions: HT-1080, 96 h, HT108, 3˜4 days incubation, absorbance at 515 nm
Experimental: as §1

[12] = system: human leukemia cell line (HL-60); assay: Differentiation with low concentration 1,25-(OH)2D3 or ATRA, NBT reduction method; format: cell-based
Experimental: For measuring the differentiation inducing effect to acute bone merrow leukemia cell line (HL-60) by indirubin AGM compound, NBT (nitroblue tetrazolium) reduction reaction method is employed. The leukemia cell line is diluted into 2×10^5 cfu/ml. After treating 20 μM and 1 μM concentrations of test compounds, test plate is incubated for 3 days at 37° C. in 5% CO2 incubator. Incubated cells are washed with phosphate buffered saline (PBS). Then, they are further incubated in PBS solution containing 0.1% NBT and 200 ng/ml of PMA (phorbol 12-myristate 13-acetate) for 30 minutes at 37° C. Incubated cells are centrifuged and collected cells are washed with PBS solution. Using cell number counter, differentiated cells forming nitroblue formazan among total cells are counted.
Next, we test if AGM compound of present invention can synergically induce the differentiation of acute bone merrow leukemia cell line when it is treated with low concentration of 1,25-dihydroxyvitamin D3[1,25-(OH)2D3] or all-trans retinoic acid (ATRA) known as differentiation inducing agent. […] […] As a positive control, conventional differentiation inducing agent is used.

human cancer cell line = assay: Inhibition of cancer cell line proliferation, overall conclusion; format: cell-based; conditions: conclusion from Table 2
Experimental: as §1

## O=C1Nc2ccc([N+](=O)[O-])cc2C1=C1Nc2ccccc2C1=NO [AGM011, 5′-nitro-1H,1′H-[2,3′] biindolylidene-3,2′-dione 3-oxime]
[1]
  IC50: 25.5 µM
RK3E-Ras cells [2]
  cell viability according to increase of compound concentration: rapidly declined
RK3E-ras solid tumor [3]
  histological appearance of tumor lesion: necrosis or calcification of tumor is observed
[4]
  % of Differentiation: 24.02 ± 0.85%
[5]
  IC50: 9.23 µM
[6]
  IC50: 1.21 µM
RK3E-Ras cells [7]; 12 hours
  DNA fragmentation: some DNA fragmentation occurs
RK3E-Ras cells [7]; 24 hours
  DNA fragmentation: clear DNA fragmentation is detected
RK3E-ras solid tumor [8]; 100 mM injected 5 times in every other day
  size and volume of tumor: decrease
RK3E-ras solid tumor [8]; tumor volume by vernier caliper, V=1/2(a.b^2)
  suppression against tumor (tumor volume): 80%
RK3E-Ras cells [9]
  annexin-V green fluorescence staining versus control: far more stained by green fluorescence than cells of control group
RK3E-Ras cells [9]; FIG. 4
  progress of apoptosis: fast processed
[10]
  IC50: 5.43 µM
[11]
  IC50: 5.87 µM
[12]; 0.2 μM compound with 5 nM of 1,25-(OH)2D3
  % of Differentiation, 1,25-(OH)2D3: 31.79 ± 0.87%
[12]; 0.2 μM compound with 50 nM of ATRA
  % of Differentiation, all-trans RA: 34.87 ± 0.74%
Human cancer cell line
  inhibitor against proliferation of human cancer cell line: effective inhibitor
